{
  "source": "the NIST ThermoML archive (doi:10.1016/j.tca.2005.11.041)",
  "assay": "excess molar enthalpy (molar enthalpy of mixing); xn = mol fraction of the nth substance listed",
  "conditions": "298.15 K, Liquid, Flow calorimetry",
  "note": "± gives the expanded uncertainty stated by the source.",
  "data": [
    {"smiles": "COC=O", "note": "[methyl methanoate] + CCCCO", "values": [
      {"measurement": "excess molar enthalpy", "setting": "5000 kPa, x1 = 0.0501", "value": "0.1057 ± 0.001", "unit": "kcal/mol"},
      {"measurement": "excess molar enthalpy", "setting": "5000 kPa, x1 = 0.1", "value": "0.1987 ± 0.00172", "unit": "kcal/mol"},
      {"measurement": "excess molar enthalpy", "setting": "5000 kPa, x1 = 0.1496", "value": "0.2737 ± 0.00229", "unit": "kcal/mol"},
      {"measurement": "excess molar enthalpy", "setting": "5000 kPa, x1 = 0.2", "value": "0.3348 ± 0.00287", "unit": "kcal/mol"},
      {"measurement": "excess molar enthalpy", "setting": "5000 kPa, x1 = 0.2496", "value": "0.3818 ± 0.00311", "unit": "kcal/mol"},
      {"measurement": "excess molar enthalpy", "setting": "5000 kPa, x1 = 0.2999", "value": "0.4177 ± 0.00335", "unit": "kcal/mol"},
      {"measurement": "excess molar enthalpy", "setting": "5000 kPa, x1 = 0.3508", "value": "0.4426 ± 0.00359", "unit": "kcal/mol"},
      {"measurement": "excess molar enthalpy", "setting": "5000 kPa, x1 = 0.4004", "value": "0.459 ± 0.00382", "unit": "kcal/mol"},
      {"measurement": "excess molar enthalpy", "setting": "5000 kPa, x1 = 0.4503", "value": "0.4661 ± 0.00382", "unit": "kcal/mol"},
      {"measurement": "excess molar enthalpy", "setting": "5000 kPa, x1 = 0.5003", "value": "0.4654 ± 0.00382", "unit": "kcal/mol"},
      {"measurement": "excess molar enthalpy", "setting": "5000 kPa, x1 = 0.5505", "value": "0.4566 ± 0.00382", "unit": "kcal/mol"},
      {"measurement": "excess molar enthalpy", "setting": "5000 kPa, x1 = 0.6006", "value": "0.4399 ± 0.00359", "unit": "kcal/mol"},
      {"measurement": "excess molar enthalpy", "setting": "5000 kPa, x1 = 0.6505", "value": "0.4136 ± 0.00335", "unit": "kcal/mol"},
      {"measurement": "excess molar enthalpy", "setting": "5000 kPa, x1 = 0.7002", "value": "0.3807 ± 0.00311", "unit": "kcal/mol"},
      {"measurement": "excess molar enthalpy", "setting": "5000 kPa, x1 = 0.7494", "value": "0.3421 ± 0.00287", "unit": "kcal/mol"},
      {"measurement": "excess molar enthalpy", "setting": "5000 kPa, x1 = 0.8004", "value": "0.2897 ± 0.00239", "unit": "kcal/mol"},
      {"measurement": "excess molar enthalpy", "setting": "5000 kPa, x1 = 0.8509", "value": "0.2321 ± 0.00198", "unit": "kcal/mol"},
      {"measurement": "excess molar enthalpy", "setting": "5000 kPa, x1 = 0.9006", "value": "0.162 ± 0.00143", "unit": "kcal/mol"},
      {"measurement": "excess molar enthalpy", "setting": "5000 kPa, x1 = 0.9495", "value": "0.0826 ± 0.000837", "unit": "kcal/mol"},
      {"measurement": "excess molar enthalpy", "setting": "10000 kPa, x1 = 0.05", "value": "0.1054 ± 0.001", "unit": "kcal/mol"},
      {"measurement": "excess molar enthalpy", "setting": "10000 kPa, x1 = 0.0997", "value": "0.1979 ± 0.00172", "unit": "kcal/mol"},
      {"measurement": "excess molar enthalpy", "setting": "10000 kPa, x1 = 0.1506", "value": "0.2747 ± 0.00232", "unit": "kcal/mol"},
      {"measurement": "excess molar enthalpy", "setting": "10000 kPa, x1 = 0.1994", "value": "0.3337 ± 0.00287", "unit": "kcal/mol"},
      {"measurement": "excess molar enthalpy", "setting": "10000 kPa, x1 = 0.2505", "value": "0.3818 ± 0.00311", "unit": "kcal/mol"},
      {"measurement": "excess molar enthalpy", "setting": "10000 kPa, x1 = 0.2992", "value": "0.4163 ± 0.00335", "unit": "kcal/mol"},
      {"measurement": "excess molar enthalpy", "setting": "10000 kPa, x1 = 0.35", "value": "0.4416 ± 0.00359", "unit": "kcal/mol"},
      {"measurement": "excess molar enthalpy", "setting": "10000 kPa, x1 = 0.3996", "value": "0.4564 ± 0.00382", "unit": "kcal/mol"},
      {"measurement": "excess molar enthalpy", "setting": "10000 kPa, x1 = 0.4495", "value": "0.464 ± 0.00382", "unit": "kcal/mol"},
      {"measurement": "excess molar enthalpy", "setting": "10000 kPa, x1 = 0.4995", "value": "0.4626 ± 0.00382", "unit": "kcal/mol"},
      {"measurement": "excess molar enthalpy", "setting": "10000 kPa, x1 = 0.5497", "value": "0.4531 ± 0.00359", "unit": "kcal/mol"},
      {"measurement": "excess molar enthalpy", "setting": "10000 kPa, x1 = 0.5998", "value": "0.4355 ± 0.00359", "unit": "kcal/mol"},
      {"measurement": "excess molar enthalpy", "setting": "10000 kPa, x1 = 0.6498", "value": "0.4104 ± 0.00335", "unit": "kcal/mol"},
      {"measurement": "excess molar enthalpy", "setting": "10000 kPa, x1 = 0.6995", "value": "0.3791 ± 0.00311", "unit": "kcal/mol"},
      {"measurement": "excess molar enthalpy", "setting": "10000 kPa, x1 = 0.7511", "value": "0.337 ± 0.00287", "unit": "kcal/mol"},
      {"measurement": "excess molar enthalpy", "setting": "10000 kPa, x1 = 0.7999", "value": "0.288 ± 0.00239", "unit": "kcal/mol"},
      {"measurement": "excess molar enthalpy", "setting": "10000 kPa, x1 = 0.8505", "value": "0.2283 ± 0.00196", "unit": "kcal/mol"},
      {"measurement": "excess molar enthalpy", "setting": "10000 kPa, x1 = 0.9003", "value": "0.1592 ± 0.00141", "unit": "kcal/mol"},
      {"measurement": "excess molar enthalpy", "setting": "10000 kPa, x1 = 0.9493", "value": "0.07925 ± 0.000789", "unit": "kcal/mol"}
    ]},
    {"smiles": "COC=O", "note": "[methyl methanoate] + CCCCCO", "values": [
      {"measurement": "excess molar enthalpy", "setting": "5000 kPa, x1 = 0.0507", "value": "0.1315 ± 0.0012", "unit": "kcal/mol"},
      {"measurement": "excess molar enthalpy", "setting": "5000 kPa, x1 = 0.0997", "value": "0.2364 ± 0.00201", "unit": "kcal/mol"},
      {"measurement": "excess molar enthalpy", "setting": "5000 kPa, x1 = 0.1503", "value": "0.3231 ± 0.00263", "unit": "kcal/mol"},
      {"measurement": "excess molar enthalpy", "setting": "5000 kPa, x1 = 0.2004", "value": "0.3893 ± 0.00311", "unit": "kcal/mol"},
      {"measurement": "excess molar enthalpy", "setting": "5000 kPa, x1 = 0.2494", "value": "0.4395 ± 0.00359", "unit": "kcal/mol"},
      {"measurement": "excess molar enthalpy", "setting": "5000 kPa, x1 = 0.2991", "value": "0.4781 ± 0.00382", "unit": "kcal/mol"},
      {"measurement": "excess molar enthalpy", "setting": "5000 kPa, x1 = 0.3496", "value": "0.5052 ± 0.00406", "unit": "kcal/mol"},
      {"measurement": "excess molar enthalpy", "setting": "5000 kPa, x1 = 0.4005", "value": "0.5217 ± 0.0043", "unit": "kcal/mol"},
      {"measurement": "excess molar enthalpy", "setting": "5000 kPa, x1 = 0.4488", "value": "0.5278 ± 0.0043", "unit": "kcal/mol"},
      {"measurement": "excess molar enthalpy", "setting": "5000 kPa, x1 = 0.4998", "value": "0.5254 ± 0.0043", "unit": "kcal/mol"},
      {"measurement": "excess molar enthalpy", "setting": "5000 kPa, x1 = 0.5506", "value": "0.5101 ± 0.00406", "unit": "kcal/mol"},
      {"measurement": "excess molar enthalpy", "setting": "5000 kPa, x1 = 0.6009", "value": "0.493 ± 0.00406", "unit": "kcal/mol"},
      {"measurement": "excess molar enthalpy", "setting": "5000 kPa, x1 = 0.6503", "value": "0.4643 ± 0.00382", "unit": "kcal/mol"},
      {"measurement": "excess molar enthalpy", "setting": "5000 kPa, x1 = 0.6986", "value": "0.4309 ± 0.00359", "unit": "kcal/mol"},
      {"measurement": "excess molar enthalpy", "setting": "5000 kPa, x1 = 0.7492", "value": "0.3859 ± 0.00311", "unit": "kcal/mol"},
      {"measurement": "excess molar enthalpy", "setting": "5000 kPa, x1 = 0.7983", "value": "0.3299 ± 0.00263", "unit": "kcal/mol"},
      {"measurement": "excess molar enthalpy", "setting": "5000 kPa, x1 = 0.8497", "value": "0.2628 ± 0.00222", "unit": "kcal/mol"},
      {"measurement": "excess molar enthalpy", "setting": "5000 kPa, x1 = 0.8992", "value": "0.181 ± 0.00158", "unit": "kcal/mol"},
      {"measurement": "excess molar enthalpy", "setting": "5000 kPa, x1 = 0.9509", "value": "0.08525 ± 0.000837", "unit": "kcal/mol"},
      {"measurement": "excess molar enthalpy", "setting": "10000 kPa, x1 = 0.0505", "value": "0.1287 ± 0.0012", "unit": "kcal/mol"},
      {"measurement": "excess molar enthalpy", "setting": "10000 kPa, x1 = 0.0994", "value": "0.2336 ± 0.00198", "unit": "kcal/mol"},
      {"measurement": "excess molar enthalpy", "setting": "10000 kPa, x1 = 0.1499", "value": "0.3196 ± 0.00263", "unit": "kcal/mol"},
      {"measurement": "excess molar enthalpy", "setting": "10000 kPa, x1 = 0.1998", "value": "0.386 ± 0.00311", "unit": "kcal/mol"},
      {"measurement": "excess molar enthalpy", "setting": "10000 kPa, x1 = 0.251", "value": "0.438 ± 0.00359", "unit": "kcal/mol"},
      {"measurement": "excess molar enthalpy", "setting": "10000 kPa, x1 = 0.3009", "value": "0.476 ± 0.00382", "unit": "kcal/mol"},
      {"measurement": "excess molar enthalpy", "setting": "10000 kPa, x1 = 0.3488", "value": "0.5032 ± 0.00406", "unit": "kcal/mol"},
      {"measurement": "excess molar enthalpy", "setting": "10000 kPa, x1 = 0.3997", "value": "0.5192 ± 0.0043", "unit": "kcal/mol"},
      {"measurement": "excess molar enthalpy", "setting": "10000 kPa, x1 = 0.4509", "value": "0.5253 ± 0.0043", "unit": "kcal/mol"},
      {"measurement": "excess molar enthalpy", "setting": "10000 kPa, x1 = 0.499", "value": "0.5227 ± 0.0043", "unit": "kcal/mol"},
      {"measurement": "excess molar enthalpy", "setting": "10000 kPa, x1 = 0.5498", "value": "0.5116 ± 0.00406", "unit": "kcal/mol"},
      {"measurement": "excess molar enthalpy", "setting": "10000 kPa, x1 = 0.6001", "value": "0.4941 ± 0.00406", "unit": "kcal/mol"},
      {"measurement": "excess molar enthalpy", "setting": "10000 kPa, x1 = 0.6496", "value": "0.4661 ± 0.00382", "unit": "kcal/mol"},
      {"measurement": "excess molar enthalpy", "setting": "10000 kPa, x1 = 0.7017", "value": "0.4273 ± 0.00359", "unit": "kcal/mol"},
      {"measurement": "excess molar enthalpy", "setting": "10000 kPa, x1 = 0.7486", "value": "0.3851 ± 0.00311", "unit": "kcal/mol"},
      {"measurement": "excess molar enthalpy", "setting": "10000 kPa, x1 = 0.802", "value": "0.3276 ± 0.00263", "unit": "kcal/mol"},
      {"measurement": "excess molar enthalpy", "setting": "10000 kPa, x1 = 0.8493", "value": "0.2631 ± 0.00222", "unit": "kcal/mol"},
      {"measurement": "excess molar enthalpy", "setting": "10000 kPa, x1 = 0.8988", "value": "0.1821 ± 0.0016", "unit": "kcal/mol"},
      {"measurement": "excess molar enthalpy", "setting": "10000 kPa, x1 = 0.9507", "value": "0.0824 ± 0.000837", "unit": "kcal/mol"}
    ]}
  ]
}
